Reference: patent US20020187998A1, “Local ophthalmic agent for treatment of ocular inflammation” (Sucampo AG, priority 2001, published 2002)

How the values were obtained:
Type in all cases: in vivo, human
[1] = tested on: inflammations caused by foreign bodies (cat hair, cat dander, pollens of a tree, ragweed or grass) instilled in the eye; assay: Itching on the eye after ocular instillation of foreign bodies, 3 hours after FK506 eye drops (Example 1); conditions: foreign bodies 3 hours after instillation, graded 5 minutes later, score 0-4, FIG. 1
Text: In a total of four groups each having 30 persons, FK506 eye drops (0.01%, 0.06% and 0.1%) were instilled in the respective experimental groups, and placebo was instilled in the control group. Three hours after the ocular instillation, various foreign bodies (cat hair, cat dander, and pollens of a tree, ragweed or grass) were ocularly instilled in both the experimental groups and the control group, thus causing inflammations. Five minutes later, itching on the eye was graded according to five-rank scores (0-4). The decreases from the score (baseline) in instilling only foreign bodies were calculated.

[2] = tested on: inflammations caused by foreign bodies (cat hair, cat dander, pollens of a tree, ragweed or grass) instilled in the eye; assay: Conjunctival hyperemia and chemosis after ocular instillation of foreign bodies, 16 hours after final instillation (Example 2); conditions: 0.1% FK506 eye drops once a day for one week
Experimental: FK506 was ocularly instilled in the subjects once a day for one week, and the same amount of placebo was ocularly instilled in the control group. At 16 hours after the final ocular instillation, various foreign bodies (cat hair, cat dander, and pollens of a tree, ragweed or grass) were ocularly instilled in both the experimental groups and the control group, thus causing the inflammations. Ten minutes later, conjunctival hyperemia and chemosis were graded according to five-rank scores (0-4). The changes from the score (baseline) in instilling only foreign bodies were calculated.

[3] = tested on: progressive corneal ulcer caused by pemphigoid; assay: Patient case, FK506 eye drops (Example 3); conditions: 0.06% FK506 eye drops three times a day, one patient
Text: A patient suffering from progressive corneal ulcer caused by pemphigoid was instilled with 0.06% FK506 eye drops three times a day.

[4] = tested on: progressive Mooren's ulcer; assay: Patient case, FK506 eye drops (Example 4); conditions: 0.06% FK506 eye drops three times a day, one patient
Text: A patient suffering from progressive Mooren's ulcer was instilled with 0.06% FK506 eye drops three times a day.

[5] = tested on: chronic nummular keratitis; assay: Patient case, FK506 eye drops (Example 5); conditions: 0.06% FK506 eye drops three times a day, one patient
Text: A patient suffering from chronic nummular keratitis was instilled with 0.06% FK506 eye drops three times a day.

Thygeson keratitis = assay: Patient case, FK506 eye drops (Example 6); conditions: 0.06% FK506 eye drops three times a day
[6] = tested on: inflammations caused by injury after penetrating keratoplasty, history of steroid glaucoma and chronic rejection; assay: Patient case, FK506 eye drops after penetrating keratoplasty (Example 7); conditions: 0.06% FK506 eye drops three times a day
Text: As a result, the progression of inflammations caused by injury was arrested and such effects were maintained at 34 weeks later.

[7] = tested on: blepharokeratoconjunctivitis; assay: Patient case, FK506 eye drops (Example 8); conditions: 0.06% FK506 eye drops three times a day
[8] = tested on: penetrating keratoplasty due to keratoconus; assay: Patient case, FK506 eye drops after penetrating keratoplasty due to keratoconus (Example 9); conditions: 0.06% FK506 eye drops three times a day
[9] = one patient without conventional therapy

C=CC[C@@H]1/C=C(\C)C[C@H](C)C[C@H](OC)[C@H]2O[C@@](O)(C(=O)C(=O)N3CCCC[C@H]3C(=O)O[C@H](/C(C)=C/[C@@H]3CC[C@@H](O)[C@H](OC)C3)[C@H](C)[C@@H](O)CC1=O)[C@H](C)C[C@@H]2OC [FK506, 17-allyl-1,14-dihydroxy-12-[2-(4-hydroxy-3-methoxycyclohexyl)-1-methylvinyl]-23,25-dimethoxy-13,19,21,27-tetramethyl-11,28-dioxa-4-azatricyclo [22.3.1.0^4,9]octacos-18-ene-2,3,10,16-tetraone]
decreases of itching score from the baseline, compared with placebo ([1]; 0.01% FK506 eye drops): decreases of itching were greater
decreases of itching score from the baseline, compared with placebo ([1]; 0.06% FK506 eye drops): decreases of itching were greater
decreases of itching score from the baseline, compared with placebo ([1]; 0.1% FK506 eye drops): decreases of itching were greater
duration of ocular anti-inflammatory effects (antiedemic effect and anti-flare effect) [2]: at least 16 hours
Changes of chemosis scores from the baseline, mean ± S.E. ([2]; challenge 16 hours after final instillation, graded 10 minutes later, score 0-4, p < 0.001): −0.30 ± 0.07
Changes of conjunctival hyperemia scores from the baseline, mean ± S.E. ([2]; challenge 16 hours after final instillation, graded 10 minutes later, score 0-4, p < 0.01): −0.51 ± 0.07
improving effects [3]: significant improving effects were observed
time at which effects were maintained [3]: 43 weeks
improving effects [4]: significant improving effects were observed
time at which effects were maintained [4]: 41 weeks
improving effects [5]: significant improving effects were observed
time at which effects were maintained [5]: 43 weeks
time until improving effects were observed [5]: two
time at which effects were maintained (Thygeson keratitis; one patient): 41 weeks
time until improving effects were observed (Thygeson keratitis; one patient): three
improving effects (Thygeson keratitis; [9]): significant improving effects were observed
progression of inflammations caused by injury ([6]; one patient): arrested
time at which effects were maintained ([6]; one patient): 34 weeks
intraocular pressure increase ([6]; patient with history of steroid glaucoma): no intraocular pressure increase was observed
time at which effects were maintained ([7]; one patient): 18 weeks
time until improving effects were observed ([7]; one patient): two
improving effects [7, 9]: significant improving effects were observed
time at which effects were maintained ([8]; one patient): 25 weeks
improving effects [8, 9]: significant improving effects were observed
